Measurements taken from ChEMBL document CHEMBL3120137, “Substituted benzene sulfonamides incorporating 1,3,5-triazinyl moieties potently inhibit human carbonic anhydrases II, IX and XII” (Bioorg Med Chem Lett, 2014).

biological target: Carbonic anhydrase 9 (Homo sapiens, UniProt Q16790); test: Inhibition of human transmembrane carbonic anhydrase 9 preincubated for 15 mins by stopped flow CO2 hydration assay

Row | SMILES | Ki
1 | NS(=O)(=O)c1ccc(Nc2nc(N3CCOCC3)nc(N3CCOCC3)n2)cc1 | 34.1 nM
2 | NCCCNc1nc(Cl)nc(Nc2ccc(S(N)(=O)=O)cc2)n1 | 21.4 nM
3 | Cc1cccc(Nc2nc(Nc3ccc(S(N)(=O)=O)cc3)nc(N3CCOCC3)n2)c1 | 10.2 nM
4 | Nc1nc(N)nc(Nc2ccc(S(N)(=O)=O)cc2)n1 | 2.4 nM
5 | NCCCNc1nc(NCCCN)nc(Nc2ccc(S(N)(=O)=O)cc2)n1 | 18.3 nM

More lines, in order of falling Ki, values ahead:

Row | Ki | SMILES
6 | 21.2 nM | NS(=O)(=O)c1ccc(Nc2nc(Cl)nc(Nc3ccc(F)c(Cl)c3)n2)cc1
7 | 19.3 nM | CC(C)(C)Nc1nc(Nc2ccc(S(N)(=O)=O)cc2)nc(NC(C)(C)C)n1
8 | 10.7 nM | Nc1cccnc1Nc1ccc(S(N)(=O)=O)cc1
9 | 8.5 nM | COc1ccc(Nc2ccc(S(N)(=O)=O)cc2)nn1
10 | 5.9 nM | NS(=O)(=O)c1ccc(Nc2nc(Cl)nc(Nc3ccccc3)n2)cc1
11 | 5.9 nM | CN(CCO)c1nc(Nc2ccc(S(N)(=O)=O)cc2)nc(N(C)CCO)n1
12 | 1.2 nM | CN(CCO)c1nc(Cl)nc(Nc2ccc(S(N)(=O)=O)cc2)n1
